Reference: patent US9512396B2, “In vitro microphysiological system for high throughput 3D tissue organization and biological function” (The Trustees of the University of Pennsylvania, priority 2011, dated 2016)
Like-named read-outs stand apart in the source and are kept apart here.

System: cardiac microtissues (CMTs)
Format: cell-based
Details: measured after 1 h
Description: In a first example, cardiomyocytes were isolated from 0-1 day neonatal Sprague Dawley rat pups by a Trypsin digestion protocol as previously described. The resulting cell population was immediately subjected to CMT generation. CMTs were cultured in high glucose DMEM (Mediatech, Inc.) containing 10% horse serum (Invitrogen), 2% chick embryo extract (Charles River Laboratories International, Inc.), 4 mM L-glutamine, 1 mM sodium pyruvate, 100 units/mL penicillin, and […] streptomycin (all from Invitrogen). Cell culture medium was changed every day. Stock solution of Isoproterenol (Sigma-Aldrich) of 10 mM was made in MilliQ water and stock solution of Digoxin (GlaxoSmithKline) of 10 mM was made in DMSO. Calcium staining was obtained by incubating CMTs for 1 h with the acetoxymethyl ester of fluo-3 (fluo-3/(AM), Invitrogen) as a fluorescent dye at 2 μM in PBS with 0.02% of Pluronic F127 (BASF).
Before cell seeding, the PDMS templates were sterilized in 70% ethanol followed by UV irradiation for 15 min and treated with 0.2% Pluronic F127 for 60 min to reduce cell adhesion. A reconstitution mixture, consisting of 1 mg/mL or 2.5 mg/mL liquid neutralized collagen I from rat tail (BO Biosciences) and 0.5 mg/mL fibrinogen from bovine plasma (Sigma-Aldrich), was then added to the surface of the substrates on ice and templates were degassed under vacuum to remove bubbles in the liquid. A cooled suspension of half a million cells within reconstitution mixture was then added to the substrate and the entire assembly was centrifuged to drive the cells into the micropatterned wells, resulting in around 500 cells per well. Excess collagen/fibrinogen and cells were removed by de-wetting the surface of the substrate before incubating at 37° C. to induce collagen polymerization. The appropriate media was then added to each substrate. By using a live/dead cell viability assay (Invitrogen), cell viability over time was estimated.
For quantifying microtissue forces, brightfield and fluorescence images were taken at 20 Hz within each template, using a Photometrics Evolve EMCCOcamera (Photometrics), and an A-Plan 10× objective on a Nikon Eclipse Ti (Nikon Instruments Inc.) equipped with a live cell incubator. Only tissues that were uniformly anchored to the tips of the cantilevers were included in the analysis. The displacement of fluorescent micro-beads at the top of the cantilevers was then tracked with using the SpotTracker plug-in in ImageJ (National Institutes of Health).
In one example, it was also examined whether CMTs responded appropriately to two cardiac compounds, isoproterenol and digoxin. To study the dose-response of the CMTs to these compounds, their concentrations were varied from 1 nM to 10 μM and the dynamic stress and the spontaneous frequency of CMTs were measured after 1 h (FIG. 13). Isoproterenol can be used as a β-adrenergic agonist with a positive chronotropic effect whereas digoxin is a cardiac glycoside that inhibits Na+/K+-ATPase (sodium pump), activates sarcoplasmic reticulum Ca2+-release channels and induces positive inotropic effects.

Compound: CC(C)NCC(O)c1ccc(O)c(O)c1 (centres unmarked) [Isoproterenol]
- effect on dynamic stress and spontaneous frequency of CMTs (1 nM): no observable effect
- change of spontaneous frequency (1 μM): doubling
- change of spontaneous frequency (10 μM): tripling
- inotropic effect (contractility, dynamic stress) (1 and 10 nM (so in the source)): slight negative inotropic effect
- chronotropic action (spontaneous frequency) (1 and 10 μM): positive chronotropic action
- inotropic action (contractility, dynamic stress) (10 and 100 nM): slight positive inotropic action

Compound: C[C@H]1O[C@@H](O[C@H]2[C@@H](O)C[C@H](O[C@H]3[C@@H](O)C[C@H](O[C@H]4CC[C@@]5(C)[C@H](CC[C@@H]6[C@@H]5C[C@@H](O)[C@]5(C)[C@@H](C7=CC(=O)OC7)CC[C@]65O)C4)O[C@@H]3C)O[C@@H]2C)C[C@H](O)[C@@H]1O [Digoxin]
- maximal stress increase (1 μM): 22±4%
- chronotropic effect (spontaneous frequency) (10 μM): strong negative chronotropic effect
- inotropic effect (dynamic stress) (10 μM): almost no inotropic effect
- spontaneous frequency (10 μM): under 0.04±0.01 Hz
- inotropic response (dynamic stress) (between 1 nM and 1 μM): positive inotropic response
